Measurements published in ChEMBL document CHEMBL1275557, “First countrywide survey of acquired metallo-beta-lactamases in gram-negative pathogens in Italy” (2008).
In brackets after ≈: the same amount, converted by molar mass.

Tests used:
Type in all cases: functional
[1] = test system: Pseudomonas aeruginosa; assay: Antibacterial activity against VIM-1 producing Pseudomonas aeruginosa clone E isolate VA-06X-29 by Etest method
[2] = test system: Pseudomonas aeruginosa; assay: Antibacterial activity against VIM-2 producing Pseudomonas aeruginosa clone B3 isolate PV-05X-02 by Etest method
[3] = test system: Klebsiella aerogenes; assay: Antibacterial activity against nonreplicate Enterobacter aerogenes clinical isolate by Etest method
[4] = test system: Pseudomonas putida; assay: Antibacterial activity against VIM-1 producing Pseudomonas putida isolate RM-11X-11 by Etest method
[5] = test system: Pseudomonas aeruginosa; assay: Antibacterial activity against IMP-13 producing Pseudomonas aeruginosa clone C3 isolate PG-12X-03 by Etest method
[6] = test system: Pseudomonas aeruginosa; assay: Antibacterial activity against VIM-2 producing Pseudomonas aeruginosa clone B3 isolate CR-04X-14 by Etest method
[7] = test system: Pseudomonas putida; assay: Antibacterial activity against nonreplicate Pseudomonas putida clinical isolate by Etest method
[8] = test system: Enterobacter cloacae; assay: Antibacterial activity against VIM-1 producing Enterobacter cloacae isolate TO-16X-51 by Etest method
[9] = test system: Pseudomonas aeruginosa; assay: Antibacterial activity against VIM-1 producing Pseudomonas aeruginosa clone A3 isolate FG-17X-08 by Etest method
[10] = test system: Pseudomonas aeruginosa; assay: Antibacterial activity against VIM-1 producing Pseudomonas aeruginosa clone F isolate RM-11X-09 by Etest method
[11] = test system: Pseudomonas aeruginosa; assay: Antibacterial activity against IMP-13 producing Pseudomonas aeruginosa clone C2 isolate NA-14X-11 by Etest method
[12] = test system: Pseudomonas aeruginosa; assay: Antibacterial activity against VIM-1 producing Pseudomonas aeruginosa clone G isolate NA-14X-13 by Etest method
[13] = test system: Pseudomonas aeruginosa; assay: Antibacterial activity against nonreplicate Pseudomonas aeruginosa clinical isolate by Etest method
[14] = test system: Pseudomonas aeruginosa; assay: Antibacterial activity against VIM-1 producing Pseudomonas aeruginosa clone A1 isolate FG-17X-14 by Etest method
[15] = test system: Klebsiella pneumoniae; assay: Antibacterial activity against nonreplicate Klebsiella pneumoniae clinical isolate by Etest method
[16] = test system: Pseudomonas aeruginosa; assay: Antibacterial activity against VIM-1 producing Pseudomonas aeruginosa clone D isolate VA-06X-69 by Etest method
[17] = test system: Pseudomonas aeruginosa; assay: Antibacterial activity against VIM-2 producing Pseudomonas aeruginosa clone B2 isolate VA-06X-28 by Etest method
[18] = test system: Pseudomonas aeruginosa; assay: Antibacterial activity against IMP-13 producing Pseudomonas aeruginosa clone C2 isolate NA-14X-12 by Etest method
[19] = test system: Acinetobacter baumannii; assay: Antibacterial activity against nonreplicate Acinetobacter baumannii clinical isolate by Etest method
[20] = test system: Proteus mirabilis; assay: Antibacterial activity against nonreplicate Proteus mirabilis clinical isolate by Etest method
[21] = test system: Pseudomonas aeruginosa; assay: Antibacterial activity against VIM-1 producing Pseudomonas aeruginosa clone D1 isolate VA-06X-63 by Etest method
[22] = test system: Pseudomonas aeruginosa; assay: Antibacterial activity against VIM-2 producing Pseudomonas aeruginosa clone B2 isolate VA-06X-20 by Etest method
[23] = test system: Pseudomonas aeruginosa; assay: Antibacterial activity against VIM-1 producing Pseudomonas aeruginosa clone D2 isolate VA-06X-17 by Etest method
[24] = test system: Pseudomonas aeruginosa; assay: Antibacterial activity against VIM-1 producing Pseudomonas aeruginosa clone A2 isolate NA-14X-21 by Etest method
[25] = test system: Pseudomonas aeruginosa; assay: Antibacterial activity against VIM-2 producing Pseudomonas aeruginosa clone B2 isolate VA-06X-38 by Etest method
[26] = test system: Pseudomonas aeruginosa; assay: Antibacterial activity against IMP-13 producing Pseudomonas aeruginosa clone C1 isolate AV-13X-28 by Etest method
[27] = Antibacterial activity against nonreplicate Burkholderia cepacia complex clinical isolate by Etest method
[28] = test system: Pseudomonas aeruginosa; assay: Antibacterial activity against VIM-1 producing Pseudomonas aeruginosa clone D2 isolate VA-06X-16 by Etest method
[29] = test system: Pseudomonas aeruginosa; assay: Antibacterial activity against VIM-1 producing Pseudomonas aeruginosa clone D4 isolate VA-06X-47 by Etest method
[30] = test system: Pseudomonas aeruginosa; assay: Antibacterial activity against VIM-1 producing Pseudomonas aeruginosa clone A2 isolate NA-14X-32 by Etest method
[31] = test system: Pseudomonas aeruginosa; assay: Antibacterial activity against VIM-1 producing Pseudomonas aeruginosa clone A2 isolate NA-14X-26 by Etest method
[32] = test system: Pseudomonas aeruginosa; assay: Antibacterial activity against IMP-13 producing Pseudomonas aeruginosa clone C2 isolate NA-14X-02 by Etest method
[33] = test system: Pseudomonas aeruginosa; assay: Antibacterial activity against VIM-2 producing Pseudomonas aeruginosa clone B1 isolate SS-09X-45 by Etest method
[34] = test system: Pseudomonas aeruginosa; assay: Antibacterial activity against IMP-13 producing Pseudomonas aeruginosa clone C2 isolate NA-14X-10 by Etest method
[35] = test system: Pseudomonas aeruginosa; assay: Antibacterial activity against VIM-1 producing Pseudomonas aeruginosa clone A3 isolate NA-14X-34 by Etest method
[36] = test system: Enterobacter cloacae; assay: Antibacterial activity against nonreplicate Enterobacter cloacae clinical isolate by Etest method
[37] = test system: Pseudomonas aeruginosa; assay: Antibacterial activity against VIM-2 producing Pseudomonas aeruginosa clone B3 isolate PV-05X-07 by Etest method
[38] = test system: Pseudomonas aeruginosa; assay: Antibacterial activity against VIM-1 producing Pseudomonas aeruginosa clone D3 isolate VA-06X-65 by Etest method

Question: For `C[C@@H](O)[C@H]1C(=O)N2C(C(=O)O)=C(SCCNC=N)C[C@H]12` [IMIPENEM ANHYDROUS], which MIC [1] is on record?
Answer: > 32 µg/mL

Question: What about the MIC [2] of the same molecule?
Answer: > 32 µg/mL

Question: And the MIC [3]?
Answer: 16 µg/mL (≈ 53.4 µM)

Question: And the MIC [4]?
Answer: > 32 µg/mL

Question: And the MIC [5]?
Answer: > 32 µg/mL

Question: And the MIC [6]?
Answer: > 32 µg/mL

Question: What about the MIC [7] of the same molecule?
Answer: 16 µg/mL (≈ 53.4 µM)

Question: And the MIC [8]?
Answer: 4 µg/mL (≈ 13.4 µM)

Question: What about the MIC [9] of the same molecule?
Answer: > 32 µg/mL

Question: What about the MIC [10] of the same molecule?
Answer: > 32 µg/mL

Question: And the MIC [11]?
Answer: > 32 µg/mL

Question: And the MIC [12]?
Answer: > 32 µg/mL

Question: And the MIC [13]?
Answer: 8 µg/mL (≈ 26.7 µM)

Question: And the MIC [14]?
Answer: > 32 µg/mL

Question: And the MIC [15]?
Answer: 2 µg/mL (≈ 6.68 µM)

Question: What about the MIC [16] of the same molecule?
Answer: > 32 µg/mL

Question: What about the MIC [17] of the same molecule?
Answer: > 32 µg/mL

Question: And the MIC [18]?
Answer: > 32 µg/mL

Question: And the MIC [19]?
Answer: 4 µg/mL (≈ 13.4 µM)

Question: And the MIC [20]?
Answer: 8 µg/mL (≈ 26.7 µM)

Question: What about the MIC [21] of the same molecule?
Answer: > 32 µg/mL

Question: And the MIC [22]?
Answer: > 32 µg/mL

Question: What about the MIC [23] of the same molecule?
Answer: > 32 µg/mL

Question: What about the MIC [24] of the same molecule?
Answer: > 32 µg/mL

Question: What about the MIC [25] of the same molecule?
Answer: > 32 µg/mL

Question: What about the MIC [26] of the same molecule?
Answer: > 16 µg/mL

Question: What about the MIC [27] of the same molecule?
Answer: 8 µg/mL (≈ 26.7 µM)

Question: What about the MIC [28] of the same molecule?
Answer: > 32 µg/mL

Question: What about the MIC [29] of the same molecule?
Answer: > 32 µg/mL

Question: And the MIC [30]?
Answer: > 32 µg/mL

Question: What about the MIC [31] of the same molecule?
Answer: > 32 µg/mL

Question: And the MIC [32]?
Answer: > 32 µg/mL

Question: And the MIC [33]?
Answer: > 32 µg/mL

Question: What about the MIC [34] of the same molecule?
Answer: > 32 µg/mL

Question: And the MIC [35]?
Answer: > 32 µg/mL

Question: What about the MIC [36] of the same molecule?
Answer: 4 µg/mL (≈ 13.4 µM)

Question: What about the MIC [37] of the same molecule?
Answer: > 32 µg/mL

Question: And the MIC [38]?
Answer: > 32 µg/mL
